# Experiments:
# Assay type in all cases: in vivo
# [1] = system: foxtail, giant (giant foxtail, Setaria faberii); test: Test A pre-/postemergence: foxtail, giant
# Summary of the method: (§1)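 Compounds, formulated with surfactant in non-phytotoxic solvent, were applied as a directed soil spray preemergence and as postemergence sprays to 2–10 cm, one- to two-leaf seedlings grown in loam soil blended with sand; visual injury, 0–100, assessed ~10 days post-treatment against untreated controls.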
# [2] = system: morningglory (Ipomoea spp.); test: Test A pre-/postemergence: morningglory
# Summary of the method: as §1
# corn (Zea mays) = test: Test A pre-/postemergence: corn
# Summary of the method: as §1
# [3] = system: sedge, umbrella (small-flower umbrella sedge Cyperus difformis); test: Test B flooded paddy: sedge, umbrella; details: Flood; 250 g ai/ha; applied to paddy water at 2-leaf stage; visually evaluated after 13 to 15 days
# Summary of the method: (§2)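 Response scored visually, 0–100 relative to controls, 13–15 days after the compound was applied into paddy water; plants were at the 2-leaf stage in pots kept flooded to 3 cm.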
# [4] = system: ducksalad (Heteranthera limosa); test: Test B flooded paddy: ducksalad; details: Flood; 250 g ai/ha; applied to paddy water at 2-leaf stage; visually evaluated after 13 to 15 days
# Summary of the method: as §2
# [5] = system: ryegrass, Italian (Italian ryegrass, Lolium multiflorum); test: Test C pre-/postemergence: ryegrass, Italian
# Summary of the method: (§3)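 Preemergence on seeds in loam/sand, postemergence on 2–18 cm (1–4-leaf) plants in peat-based medium; compounds in non-phytotoxic solvent with surfactant. After 13–15 days in greenhouse, visual rating versus controls, 0 (no effect) to 100 (complete control).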
# [6] = system: johnsongrass (Sorghum halepense); test: Test C pre-/postemergence: johnsongrass
# Summary of the method: as §3
# kochia (Kochia scoparia) = test: Test C pre-/postemergence: kochia
# Summary of the method: as §3
# [7] = system: ragweed (common ragweed, Ambrosia elation); test: Test C pre-/postemergence: ragweed
# Summary of the method: as §3
# soybean (Glycine max) = test: Test C pre-/postemergence: soybean
# Summary of the method: as §3
# [8] = system: chickweed (common chickweed, Stellaria media); test: Test C postemergence: chickweed
# Summary of the method: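 Greenhouse pot test; foliar postemergence treatment at 1- to 4-leaf stage. Rated visually at 13 to 15 days on a 0–100 control scale relative to untreated plants.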
# [9] = Postemergence, 125 g ai/ha, 0 to 100 scale, 0 is no effect, 100 is complete control
# [10] = Postemergence, 500 g ai/ha, visual rating on 0 to 100 scale (0 no effect, 100 complete control), approximately ten days
# [11] = Preemergence, 125 g ai/ha, 0 to 100 scale (0 no effect, 100 complete control)
# [12] = Preemergence, 500 g ai/ha, 0 to 100 scale, 0 is no effect, 100 is complete control
# [13] = Postemergence, 31 g ai/ha, scale 0 to 100 (0 no effect, 100 complete control)
# [14] = Postemergence, 62 g ai/ha, scale 0 to 100 (0 no effect, 100 complete control)
# [15] = Postemergence, 125 g ai/ha, scale 0 to 100, 0 no effect, 100 complete control
# [16] = Postemergence, 250 g ai/ha, scale 0 to 100
# [17] = Preemergence, 31 g ai/ha, scale of 0 to 100, 0 is no effect, 100 is complete control
# [18] = Preemergence, 62 g ai/ha, scale of 0 to 100, 0 is no effect, 100 is complete control
# [19] = Preemergence, 125 g ai/ha, scale 0 to 100, 0 no effect, 100 complete control
# [20] = Preemergence, 250 g ai/ha, scale 0 to 100, 0 no effect, 100 complete control
# [21] = 31 g ai/ha, scale 0 to 100 (0 no effect, 100 complete control)
# [22] = 62 g ai/ha, scale 0 to 100 (0 no effect, 100 complete control)
# [23] = Postemergence, 500 g ai/ha, 0 to 100 scale, 0 is no effect, 100 is complete control
# [24] = Preemergence, 125 g ai/ha, 0 to 100 scale where 0 is no effect and 100 is complete control
# [25] = Preemergence, 500 g ai/ha, 0 to 100 scale (0 no effect, 100 complete control)
# [26] = Postemergence, 250 g ai/ha, scale 0 to 100 (0 no effect, 100 complete control)
# [27] = Preemergence, 31 g ai/ha, scale 0 (no effect) to 100 (complete control)
compound,measurement,setting,value
Fc1ccc(-n2nc(Cc3ccnc(C(F)(F)F)c3)c(OC(F)F)n2)cc1 [Compound 25],"Foxtail, Giant plant response rating",[1]; [9],90
same,"Foxtail, Giant plant response rating",[1]; [10],90
same,"Plant response rating, Foxtail, Giant",[1]; [11],100
same,"Plant response rating, Foxtail, Giant",[1]; [12],100
same,Morningglory plant response rating,[2]; [9],100
same,Morningglory plant response rating,[2]; [10],100
same,"Plant response rating, Morningglory",[2]; [11],30
same,"Plant response rating, Morningglory",[2]; [12],80
same,Corn plant response rating,corn (Zea mays); [9],30
same,Corn plant response rating,corn (Zea mays); [10],30
same,"Plant response rating, Corn",corn (Zea mays); [11],10
same,"Plant response rating, Corn",corn (Zea mays); [12],30
same,"Plant response rating, Sedge, Umbrella (0 to 100 scale, 0 is no effect, 100 is complete control)",[3],95
same,"Plant response rating, Ducksalad (0 to 100 scale, 0 is no effect, 100 is complete control)",[4],90
same,"Plant response rating, Ryegrass, Italian",[5]; [13],5
same,"Plant response rating, Ryegrass, Italian",[5]; [14],5
same,"Plant response rating, Ryegrass, Italian",[5]; [15],5
same,"Plant response rating, Ryegrass, Italian",[5]; [16],5
same,"Plant response rating, Ryegrass, Italian",[5]; [17],5
same,"Plant response rating, Ryegrass, Italian",[5]; [18],35
same,"Plant response rating, Ryegrass, Italian",[5]; [19],45
same,"Plant response rating, Ryegrass, Italian",[5]; [20],90
same,"Plant response rating, Johnsongrass",[6]; [13],5
same,"Plant response rating, Johnsongrass",[6]; [14],5
same,"Plant response rating, Johnsongrass",[6]; [15],10
same,"Plant response rating, Johnsongrass",[6]; [16],15
same,"Plant response rating, Johnsongrass",[6]; [17],5
same,"Plant response rating, Johnsongrass",[6]; [18],30
same,"Plant response rating, Johnsongrass",[6]; [19],65
same,"Plant response rating, Johnsongrass",[6]; [20],98
same,"Plant response rating, Kochia",kochia (Kochia scoparia); [13],75
same,"Plant response rating, Kochia",kochia (Kochia scoparia); [14],80
same,"Plant response rating, Kochia",kochia (Kochia scoparia); [15],90
same,"Plant response rating, Kochia",kochia (Kochia scoparia); [16],90
same,"Plant response rating, Kochia",kochia (Kochia scoparia); [17],10
same,"Plant response rating, Kochia",kochia (Kochia scoparia); [18],40
same,"Plant response rating, Kochia",kochia (Kochia scoparia); [19],55
same,"Plant response rating, Kochia",kochia (Kochia scoparia); [20],85
same,"Plant response rating, Ragweed",[7]; [13],50
same,"Plant response rating, Ragweed",[7]; [14],50
same,"Plant response rating, Ragweed",[7]; [15],60
same,"Plant response rating, Ragweed",[7]; [16],60
same,"Plant response rating, Ragweed",[7]; [17],5
same,"Plant response rating, Ragweed",[7]; [18],5
same,"Plant response rating, Ragweed",[7]; [19],20
same,"Plant response rating, Ragweed",[7]; [20],50
same,"Plant response rating, Soybean",soybean (Glycine max); [13],25
same,"Plant response rating, Soybean",soybean (Glycine max); [14],30
same,"Plant response rating, Soybean",soybean (Glycine max); [15],30
same,"Plant response rating, Soybean",soybean (Glycine max); [16],30
same,"Plant response rating, Soybean",soybean (Glycine max); [17],0
same,"Plant response rating, Soybean",soybean (Glycine max); [18],0
same,"Plant response rating, Soybean",soybean (Glycine max); [19],0
same,"Plant response rating, Soybean",soybean (Glycine max); [20],10
same,"Plant response rating, Chickweed",[8]; [21],30
same,"Plant response rating, Chickweed",[8]; [22],60
same,"Plant response rating, Chickweed","[8]; 125 g ai/ha, scale 0 to 100, 0 no effect, 100 complete control",98
same,"Plant response rating, Chickweed","[8]; 250 g ai/ha, scale 0 to 100",98
CCCc1nn(-c2ccc(C(F)(F)F)cc2)nc1Oc1ccnc(C(F)(F)F)c1 [Compound 170],"Plant response rating, Foxtail, Giant",[1]; [9],90
same,"Foxtail, Giant plant response rating",[1]; [23],90
same,"Plant response rating, Foxtail, Giant",[1]; [24],100
same,"Plant response rating, Foxtail, Giant",[1]; [25],100
same,"Plant response rating, Morningglory",[2]; [9],100
same,Morningglory plant response rating,[2]; [23],100
same,"Plant response rating, Morningglory",[2]; [24],70
same,"Plant response rating, Morningglory",[2]; [25],90
same,"Plant response rating, Corn",corn (Zea mays); [9],30
same,Corn plant response rating,corn (Zea mays); [23],50
same,"Plant response rating, Corn",corn (Zea mays); [24],30
same,"Plant response rating, Corn",corn (Zea mays); [25],40
same,"Plant response rating, Sedge, Umbrella (0 to 100 scale, 0 is no effect, 100 is complete control)",[3],90
same,"Plant response rating, Ducksalad (0 to 100 scale, 0 is no effect, 100 is complete control)",[4],35
same,"Plant response rating, Ryegrass, Italian",[5]; [13],15
same,"Plant response rating, Ryegrass, Italian",[5]; [14],35
same,"Plant response rating, Ryegrass, Italian",[5]; [15],35
same,"Plant response rating, Ryegrass, Italian",[5]; [26],70
same,"Plant response rating, Ryegrass, Italian",[5]; [27],55
same,"Plant response rating, Ryegrass, Italian",[5]; [18],90
same,"Plant response rating, Ryegrass, Italian",[5]; [19],95
same,"Plant response rating, Ryegrass, Italian",[5]; [20],95
same,"Plant response rating, Johnsongrass",[6]; [13],20
same,"Plant response rating, Johnsongrass",[6]; [14],25
same,"Plant response rating, Johnsongrass",[6]; [15],80
same,"Plant response rating, Johnsongrass",[6]; [26],98
same,"Plant response rating, Johnsongrass",[6]; [27],50
same,"Plant response rating, Johnsongrass",[6]; [18],75
same,"Plant response rating, Johnsongrass",[6]; [19],95
same,"Plant response rating, Johnsongrass",[6]; [20],95
same,"Plant response rating, Kochia",kochia (Kochia scoparia); [13],90
same,"Plant response rating, Kochia",kochia (Kochia scoparia); [14],90
same,"Plant response rating, Kochia",kochia (Kochia scoparia); [15],90
same,"Plant response rating, Kochia",kochia (Kochia scoparia); [26],90
same,"Plant response rating, Ragweed",[7]; [13],85
same,"Plant response rating, Ragweed",[7]; [14],85
same,"Plant response rating, Ragweed",[7]; [15],90
same,"Plant response rating, Ragweed",[7]; [26],90
same,"Plant response rating, Ragweed",[7]; [27],5
same,"Plant response rating, Ragweed",[7]; [18],60
same,"Plant response rating, Ragweed",[7]; [19],75
same,"Plant response rating, Ragweed",[7]; [20],95
same,"Plant response rating, Soybean",soybean (Glycine max); [13],30
same,"Plant response rating, Soybean",soybean (Glycine max); [14],70
same,"Plant response rating, Soybean",soybean (Glycine max); [15],90
same,"Plant response rating, Soybean",soybean (Glycine max); [27],5
same,"Plant response rating, Soybean",soybean (Glycine max); [18],5
same,"Plant response rating, Soybean",soybean (Glycine max); [19],20
same,"Plant response rating, Soybean",soybean (Glycine max); [20],45
same,"Plant response rating, Chickweed",[8]; [21],75
same,"Plant response rating, Chickweed",[8]; [22],95
same,"Plant response rating, Chickweed","[8]; 250 g ai/ha, scale 0 to 100",95
